The text below walks through data of patent publication EP1143981B1, “USE OF N-GLYCOLNEURAMINIC ACID AND ITS DERIVATIVES FOR THE MANUFACTURE OF A MEDICAMENT FOR THE TREATMENT OF HIV INFECTIONS” (Glukor, Inc., priority 1998, dated 2000).

The test system of one experiment is HIV-1ROJO. As to the kind of experiment: Reverse transcriptase activity assay in infected PBMCs. It counts as cell-based. The conditions noted are these: PBMCs. The text has this: PBMCs were isolated from fresh human blood obtained commercially from the American Red Cross (Baltimore, Maryland). CEM-SS cells were obtained from the NIH AIDS reagent program. The low passage, lymphotropic clinical isolate ROJO was obtained from a pediatric patient attending the AIDS Clinic at the University of Alabama at Birmingham. Phytohemagglutinin (PHA-P) was obtained from Sigma Chemical Co. (St. Louis, MO) and recombinant IL-2 was obtained from Amgen (San Francisco, CA). As a positive control for antiviral assays, AZT was obtained from the NIH AIDS Reagent Program. HIV-1RF also was obtained from the NIH AIDS reagent program. Tritiated thymidine triphosphate was obtained from New England Nuclear (Boston, MA). Each plate in each experiment contained cell control wells (cells only), virus control wells (cells plus virus), drug toxicity control wells (cells plus drug only), drug colorimetric control wells (drug only) as well as experimental wells (drug plus cells plus virus).
Fresh human PBMCs were isolated from voluntary Red Cross donors, seronegative for HIV and HBV. Leukophoresed blood was diluted 1:1 with Dulbecco's PBS, layered over 14 mL of Ficoll-Hypaque density gradient in a 50mL centrifuge and then centrifuged for 30 minutes at 600 x g. Banded PBMCs were gently aspirated from the resulting interface and subsequently washed twice with PBS by low speed centrifugation. […] PBMCs were maintained in this medium at a concentration of 1-2 x 10^6 cells/mL with bi-weekly medium changes until used in the assay.
(§1) For the standard PBMC assay, PHA-P stimulated cells from at least two normal donors were pooled, diluted in fresh medium to a final concentration of 1 x 10^6 cells/mL, and plated in the interior wells of a 96 well round bottom microplate at 50 µL/well (5 x 10^4 cells/well). Test drug dilutions were prepared at a 2X concentration in microfuge tubes and 100 µL of each concentration was placed in appropriate wells in a standard format. A predetermined dilution of virus stock was placed in each test well (50 µL, final MOI ≅ 0.1). Wells with cells and virus alone were used for virus control. Separate plates were prepared identically without virus for drug cytotoxicity studies using an XTT assay system. The PBMC cultures were maintained for seven days following infection, at which time cell-free supernatant samples were collected and assayed for reverse transcriptase activity as described below.
Virus Preparation: Pre-tittered aliquots of HIV-1ROJO and HIV-1RF were removed from the freezer (-80°C) and thawed to room temperature in a biological safety cabinet. The virus was resuspended and diluted into tissue culture medium such that the amount of virus added to each well in a volume of 50 µL will be the amount determined to give complete cell killing at 6 days post-infection.
Reverse Transcriptase Activity Assay: A microtiter based reverse transcriptase (RT) reaction was utilized as described by Buckheit et al., (1991), AIDS Research and Human Retroviruses, 7:295-302. Tritiated thymidine triphosphate (^3H-TTP) was suspended in distilled H2O at 5 Ci/mL. Poly rA and oligo dT were prepared as a stock solution which was kept at -20°C. RT reaction buffer was prepared fresh on a daily basis and contained 125 µL 1M EGTA, 125 µL dH2O, 110 µL 10% SDS, 50 µL 1M Tris (pH 7.4), 50 µL 1M DTT, and 40 µL 1M MgCl2. These three solutions were mixed together in a ratio of 2 parts ^3H-TTP, 1 part poly rA:oligo dT, and 1 part reaction buffer. Ten microliters of this reaction mixture were placed in a round bottom microtiter plate and 15 µL of virus containing supernatant were added and mixed. The plate was incubated at 37°C in a water bath with a solid support to prevent submersion of the plate and incubated for 60 minutes.

The next experiment deals with HIV-1IIIB. The experiment in a line: PBMC cell-based anti-HIV assay. The conditions noted are these: PBMCs. On the procedure:
as §1
Reverse Transcriptase Activity Assay: A microtiter based reverse transcriptase (RT) reaction was utilized as described by Buckheit et al., (1991), AIDS Research and Human Retroviruses, 7:295-302. Tritiated thymidine triphosphate (^3H-TTP) was suspended in distilled H2O at 5 Ci/mL. […] Opti-Fluor-O (Packard) was added to each sample and incorporated radioactivity was quantified utilizing a Wallac 1450 MicroBeta Plus liquid scintillation counter. […]

`Cc1cn([C@H]2C[C@H](N=[N+]=[N-])[C@@H](CO)O2)c(=O)[nH]c1=O` [AZT, reference compound]: the IC50 in the experiment with HIV-1ROJO (2hr pretreatment) worked out at 4 nM; in the experiment on HIV-1ROJO (without pretreatment) it was 8 nM; in the experiment on HIV-1IIIB it was 2 nM.

Usually IC50 stands for the concentration that inhibits the measured activity by half.
